Assay results published in patent publication US9745328B2, “Flap modulators” (JANSSEN PHARMACEUTICA NV, priority 2013, dated 2017).
Counter-ions that a name gives are not always drawn.

Target: human FLAP (Homo sapiens (Human), UniProt P20292)
Assay: FLAP binding assay (HTRF format)
Conditions: Table 6 (additional runs), human FLAP wild type
In short: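 HTRF ratio read-out; two independent plates, samples in duplicate on each, values averaged across plates.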

human FLAP, sequence (P20292 whole entry): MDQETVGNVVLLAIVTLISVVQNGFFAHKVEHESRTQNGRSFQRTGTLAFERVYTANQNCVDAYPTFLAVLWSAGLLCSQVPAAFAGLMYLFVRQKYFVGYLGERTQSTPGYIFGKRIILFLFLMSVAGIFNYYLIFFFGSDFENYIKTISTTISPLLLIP

Compound | Ki [nM]
Nc1cnc(-c2ccc(-c3ccccc3S(=O)(=O)C3CC3)cc2F)cn1 [Example 197, 5-[2′-(Cyclopropylsulfonyl)-3-fluorobiphenyl-4-yl]pyrazin-2-amine] | 7.1
Nc1cnc(-c2ccc(-c3ccccc3SCCNC(=O)c3ccccc3)cc2F)cn1 [Example 204, N-(2-{[4′-(5-Aminopyrazin-2-yl)-3′-fluorobiphenyl-2-yl]sulfanyl}ethyl)benzamide] | 4.5
CNS(=O)(=O)c1cc(C(F)(F)F)ccc1-c1ccc(-c2cnc(N)cn2)c(F)c1 [Example 208, 4′-(5-Aminopyrazin-2-yl)-3′-fluoro-N-methyl-4-(trifluoromethyl)biphenyl-2-sulfonamide] | 0.4
Nc1cnc(-c2ccc(-c3ccc(C(F)(F)F)cc3S(=O)(=O)NCCO)cc2F)cn1 [Example 210, 4′-(5-aminopyrazin-2-yl)-3′-fluoro-N-(2-hydroxyethyl)-4-(trifluoromethyl)biphenyl-2-sulfonamide] | 0.4
CCNS(=O)(=O)c1cc(C(F)(F)F)ccc1-c1ccc(-c2cnc(N)cn2)c(F)c1 [Example 211, 4′-(5-Aminopyrazin-2-yl)-N-ethyl-3′-fluoro-4-(trifluoromethyl)biphenyl-2-sulfonamide] | 0.5
Nc1cnc(-c2ccc(-c3ccccc3Sc3ncccn3)cc2F)cn1 [Example 213, 5-[3-Fluoro-2′-(pyrimidin-2-ylsulfanyl)biphenyl-4-yl]pyrazin-2-amine hydrochloride] | 2.4
Nc1cnc(-c2ccc(-c3ccccc3Sc3cc(N)ncn3)cc2F)cn1 [Example 215, 6-{[4′-(5-Aminopyrazin-2-yl)-3′-fluorobiphenyl-2-yl]sulfanyl}pyrimidin-4-amine hydrochloride] | 2.4
Nc1cnc(-c2ccc(-c3ccccc3Sc3nccc(N)n3)cc2F)cn1 [Example 216, 2-{1,4′-(5-Aminopyrazin-2-yl)-3′-fluorobiphenyl-2-yl]sulfanyl}pyrimidin-4-amine hydrochloride] | 2.2
Nc1cnc(-c2ccc(-c3ccccc3Sc3ncncc3N)cc2F)cn1 [Example 217, 4-{[4′-(5-Aminopyrazin-2-yl)-3′-fluorobiphenyl-2-yl]sulfanyl}pyrimidin-5-amine hydrochloride] | 1.2
Nc1cnc(-c2ccc(-c3ccccc3Sc3cnccn3)cc2F)cn1 [Example 218, 5-[3-Fluoro-2′-(pyrazin-2-ylsulfanyl)biphenyl-4-yl]pyrazin-2′ amine hydrochloride] | 3.3
C[C@H](O)CNS(=O)(=O)Cc1ccccc1-c1ccc(-c2cnc(N)cn2)c(F)c1 [Example 227, (S)-1-[4′-(5-Aminopyrazin-2-yl)-3′-fluorobiphenyl-2-yl]-N-[(2S)-2-hydroxypropyl]methanesulfonamide hydrochloride] | 670
C[C@@H](O)CNS(=O)(=O)Cc1ccccc1-c1ccc(-c2cnc(N)cn2)c(F)c1 [Example 228, (R)-1-[4′-(5-Aminopyrazin-2-yl)-3′-fluorobiphenyl-2-yl]-N-[(2S)-2-hydroxypropyl]methanesulfonamide] | 1060
Nc1cnc(-c2ccc(-c3ccccc3CS(=O)(=O)N3CCC(N)CC3)cc2F)cn1 [Example 229, 5-(2′-{[(4-Aminopiperidin.-1-yl)sulfonyl]methyl}-3-fluorobiphenyl-4-yl)pyrazin-2-amine hydrochloride] | 1070
Nc1cnc(-c2ccc(-c3ccccc3CSc3ccc(N)nn3)cc2F)cn1 [Example 240, 6-(((4′-(5-aminopyrazin-2-yl)-3′-fluoro-[1,1′-biphenyl]-2-yl)methyl)thio)pyridazin-3-amine hydrochloride] | 2.4
Nc1cnc(-c2ccc(-c3ccccc3Sc3ccnc(N)n3)cc2F)cn1 [Example 242, 4-{[4′(5-Aminopyrazin-2-yl)-3′-fluorobiphenyl-2-yl]sulfanyl}pyrimidin-2-amine hydrochloride] | 0.7
Nc1cnc(-c2ccc(-c3ccccc3CSc3ccncn3)cc2F)cn1 [Example 243, 5-(3-fluoro-2′-((pyrimidin-4-ylthio)methyl)-[1,1′-biphenyl]-4-yl)pyrazin-2-amine hydrochloride] | 3.3
CC[C@@H](CO)NS(=O)(=O)c1ccccc1-c1ccc(-c2cnc(N)nc2)c(F)c1 [Example 248, 4′-(2-Aminopyrimidin-5-yl)-3′-fluoro-N-[(1S)-1-(hydroxymethyl)propyl]biphenyl-2-sulfonamide] | 56.8
CC(C)(CO)CNS(=O)(=O)c1ccccc1-c1ccc(-c2cnc(N)nc2)c(F)c1 [Example 251, 4′-(2-Aminopyrimidin-5-yl)-3′-fluoro-N-(3-hydroxy-2,2-dimethylpropyl)biphenyl-2-sulfonamide] | 4.5
CC(CO)(CO)NS(=O)(=O)c1ccccc1-c1ccc(-c2cnc(N)nc2)c(F)c1 [Example 255, 4′-(2-Aminopyrimidin-5-yl)-3′-fluoro-N-[2-hydroxy-1-(hydroxymethyl)-1-methylethyl]biphenyl-2-sulfonamide] | 8.1
CC(C)N(CCO)S(=O)(=O)c1ccccc1-c1ccc(-c2cnc(N)nc2)c(F)c1 [Example 261, 4′-(2-Aminopyrimidin-5-yl)-3′-fluoro-N-(2-hydroxyethyl)-N-(1-methylethyl)biphenyl-2-sulfonamide] | 5.6
Nc1ncc(-c2ccc(-c3ccccc3S(=O)(=O)N[C@H]3CCNC3=O)cc2F)cn1 [Example 263, 4′-(2-Aminopyrimidin-5-yl)-3′-fluoro-N-[(3S)-2-oxopyrrolidin-3-yl]biphenyl-2-sulfonamide] | 127
Nc1ncc(-c2ccc(-c3ccccc3S(=O)(=O)N3CC(O)C3)cc2F)cn1 [Example 265, 1-{[4′-(2-Aminopyrimidin-5-yl)-3′-fluorobiphenyl-2-yl]sulfonyl}azetidin-3-ol trifluoroacetic acid salt] | 35.5
Nc1ncc(-c2ccc(-c3ccccc3S(=O)(=O)N[C@@H]3CCCNC3=O)cc2F)cn1 [Example 266, 4′-(2-Aminopyrimidin-5-yl)-3′-fluoro-N-[(3R)-2-oxopiperidin-3-yl]biphenyl-2-sulfonamide trifluoroacetic acid salt] | 133
Nc1ncc(-c2ccc(-c3ccccc3S(=O)(=O)N[C@H]3CCCNC3=O)cc2F)cn1 [Example 267, 4′-(2-Aminopyrimidin-5-yl)-3′-fluoro-N-[(3S)-2-oxopiperidin-3-yl]biphenyl-2-sulfonamide trifluoroacetic acid salt] | 185
CC(C)(O)CNS(=O)(=O)c1ccccc1-c1ccc(-c2cnc(N)nc2)c(F)c1 [Example 272, 4′-(2-Aminopyrimidin-5-y)-3′-fluoro-N-(2-hydroxy-2-methylpropyl)biphenyl-2-sulfonamide trifluoroacetic acid salt] | 26.9
CC(C)(CO)NS(=O)(=O)c1ccccc1-c1ccc(-c2cnc(N)nc2)c(F)c1 [Example 280, 4′-(2-.Aminopyrimidin-5-yl)-3′-fluoro-N-(2-hydroxy-1,1-dimethylethyl)biphenyl-2-sulfonamide trifluoroacetic acid salt] | 3.3
Nc1ncc(-c2ccc(-c3ccccc3S(=O)(=O)N3CCN(C4CC4)CC3)cc2F)cn1 [Example 281, 5-{2′-[(4-Cyclopropylpiperazin-1-yl)sulfonyl]-3-fluorobiphenyl-4-yl}pyrimidin-2-amine trifluoroacetic acid salt] | 60.8

Same assay, conditions: human FLAP wild type, a calculated value of 0.000 indicates Ki less than 1 nM

Compound | Ki [nM]
CNS(=O)(=O)c1cc(C(F)(F)F)ccc1-c1ccc(-c2cnc(N)cn2)c(F)c1 [Example 208, 4′-(5-Aminopyrazin-2-yl)-3′-fluoro-N-methyl-4-(trifluoromethyl)biphenyl-2-sulfonamide] | < 1
Nc1cnc(-c2ccc(-c3ccc(C(F)(F)F)cc3S(=O)(=O)NCCO)cc2F)cn1 [Example 210, 4′-(5-aminopyrazin-2-yl)-3′-fluoro-N-(2-hydroxyethyl)-4-(trifluoromethyl)biphenyl-2-sulfonamide] | < 1
